Measurements from publication PMC8357188 (Nature biomedical engineering, 2020).

Tested on: porcine jejunum tissue
Experiment: GI-TRIS intestinal transport experiments
Type: in vitro ADME, pig

## carbetocin acetate
  increase in intestinal transport when formulated with polyethyleneimine: limited increase
